# Assay results: ChEMBL document CHEMBL1201862, “PubChem BioAssay data set” (2004)
#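 Five concentrations, 48 hours, 96-well plates. At the GI50, growth is halved.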 Active and inactive are the calls of the source. Cut-off read from the data, not from the text of the source: active = GI50 up to about 1.1 µM and inactive = higher.
# Experiments:
# Assay in all cases: inhibition of tumour cell growth, NCI panel, 48 h
# LOX IMVI = test system: LOX IMVI
# HCT-15 = test system: HCT-15
# U-251 = test system: U-251
# M14 = test system: M14
# K562 = test system: K562
# MDA-N = test system: MDA-N
# CAKI-1 = test system: CAKI-1
# Hs-578T = test system: Hs-578T
# UACC-62 = test system: UACC-62
# SW-620 = test system: SW-620
# IGROV-1 = test system: IGROV-1
# HOP-92 = test system: HOP-92
# SNB-75 = test system: SNB-75
# HL-60 = test system: HL-60
# SK-MEL-5 = test system: SK-MEL-5
# Malme-3M = test system: Malme-3M
# COLO 205 = test system: COLO 205
# NCI-H460 = test system: NCI-H460
# HT-29 = test system: HT-29
# MCF7 = test system: MCF7
# A498 = test system: A498
# MOLT-4 = test system: MOLT-4
# NCI-H522 = test system: NCI-H522
# UACC-257 = test system: UACC-257
# HCT-116 = test system: HCT-116
# EKVX = test system: EKVX
# T47D = test system: T47D
# TK-10 = test system: TK-10
# RPMI-8226 = test system: RPMI-8226
# OVCAR-5 = test system: OVCAR-5
# MDA-MB-231 = test system: MDA-MB-231
# KM12 = test system: KM12
# SF-268 = test system: SF-268
# SK-OV-3 = test system: SK-OV-3
# NCI-H226 = test system: NCI-H226
# SK-MEL-2 = test system: SK-MEL-2
# SN12C = test system: SN12C
# OVCAR-4 = test system: OVCAR-4
# NCI-H23 = test system: NCI-H23
# 786-0 = test system: 786-0
# A549 = test system: A549
# HCC 2998 = test system: HCC 2998
# SNB-19 = test system: SNB-19
# OVCAR-8 = test system: OVCAR-8
# SF-295 = test system: SF-295
# SF-539 = test system: SF-539
# SK-MEL-28 = test system: SK-MEL-28
# UO-31 = test system: UO-31
# DU-145 = test system: DU-145
# NCI/ADR-RES = test system: NCI/ADR-RES
# MDA-MB-435 = test system: MDA-MB-435
# CCRF-CEM = test system: CCRF-CEM
# BT-549 = test system: BT-549
# PC-3 = test system: PC-3
# HOP-62 = test system: HOP-62
# OVCAR-3 = test system: OVCAR-3
# RXF 393 = test system: RXF 393
# SR = test system: SR
# ACHN = test system: ACHN
structure (smiles),measurement,setting,value
C=CC1(CBr)CCC(C(C)(C)Br)O1 (centres undefined),GI50,LOX IMVI,1.74 µM (inactive)
same,GI50,HCT-15,6.64 µM
same,GI50,U-251,6.27 µM (inactive)
same,GI50,M14,13.1 µM (inactive)
same,GI50,K562,3.71 µM (inactive)
same,GI50,MDA-N,8.57 µM (inactive)
same,GI50,CAKI-1,7.23 µM (inactive)
same,GI50,Hs-578T,12.6 µM (inactive)
same,GI50,UACC-62,10.3 µM (inactive)
same,GI50,SW-620,3.56 µM (inactive)
same,GI50,IGROV-1,8.13 µM (inactive)
same,GI50,HOP-92,14.9 µM (inactive)
same,GI50,SNB-75,5.65 µM (inactive)
same,GI50,HL-60,0.832 µM (active)
same,GI50,SK-MEL-5,9.86 µM (inactive)
same,GI50,Malme-3M,13.7 µM (inactive)
same,GI50,COLO 205,5.43 µM (inactive)
same,GI50,NCI-H460,13 µM (inactive)
same,GI50,HT-29,5.77 µM (inactive)
same,GI50,MCF7,15.6 µM (inactive)
same,GI50,A498,19.1 µM (inactive)
same,GI50,MOLT-4,2.21 µM (inactive)
same,GI50,NCI-H522,2.51 µM (inactive)
same,GI50,UACC-257,13.7 µM (inactive)
same,GI50,HCT-116,6.64 µM (inactive)
same,GI50,EKVX,18 µM (inactive)
same,GI50,T47D,2.28 µM (inactive)
same,GI50,TK-10,15.1 µM (inactive)
same,GI50,RPMI-8226,1.79 µM (inactive)
same,GI50,OVCAR-5,14.7 µM (inactive)
same,GI50,MDA-MB-231,13.2 µM (inactive)
same,GI50,KM12,12.2 µM (inactive)
same,GI50,SF-268,15.7 µM (inactive)
same,GI50,SK-OV-3,14.5 µM (inactive)
same,GI50,NCI-H226,21 µM (inactive)
same,GI50,SK-MEL-2,12.8 µM (inactive)
same,GI50,SN12C,16.6 µM (inactive)
same,GI50,OVCAR-4,14.3 µM (inactive)
same,GI50,NCI-H23,6.98 µM (inactive)
same,GI50,786-0,1.79 µM (inactive)
same,GI50,A549,17.3 µM (inactive)
same,GI50,HCC 2998,16.6 µM (inactive)
same,GI50,SNB-19,15.8 µM (inactive)
same,GI50,OVCAR-8,2.9 µM (inactive)
same,GI50,SF-295,12.3 µM (inactive)
same,GI50,SF-539,16.9 µM (inactive)
same,GI50,SK-MEL-28,7.73 µM (inactive)
same,GI50,UO-31,12.7 µM (inactive)
same,GI50,DU-145,10 µM (inactive)
same,GI50,NCI/ADR-RES,10.1 µM (inactive)
same,GI50,MDA-MB-435,12.6 µM (inactive)
same,GI50,CCRF-CEM,2.08 µM (inactive)
same,GI50,BT-549,16.7 µM (inactive)
same,GI50,PC-3,12 µM (inactive)
same,GI50,HOP-62,15.9 µM (inactive)
same,GI50,OVCAR-3,9.42 µM (inactive)
same,GI50,RXF 393,13.7 µM (inactive)
same,GI50,SR,2.52 µM (inactive)
same,GI50,ACHN,16.4 µM (inactive)
